Tests used:
[1] = test system: mouse; conditions: Reproduction/developmental toxicity screening test, other, Injection, Subcutaneous, dose end: 1 PND
[2] = test system: mouse; conditions: Carcinogenicity; other; Oral; Water; dose end: 18 week; group: systemic; systemic / pathology microscopic / lung / mixed tumor nos
[3] = test system: mouse; conditions: Subchronic oral toxicity in rodents, BALB/c, Water, dose end: 141 day, group: systemic, systemic / pathology microscopic / liver / hemangioma + systemic / pathology microscopic / liver / hemangiosarcoma + systemic / pathology …
[4] = test system: mouse; conditions: Carcinogenicity; b6c3f1; Oral; Gavage/Intubation; dose end: 90 week; group: systemic; systemic / pathology microscopic / liver / carcinoma + systemic / in life observation / clinical signs / alopecia + systemic / in life …
[5] = test system: rat; conditions: Carcinogenicity; other; Oral; Gavage/Intubation; dose end: 113 week; group: systemic; systemic / in life observation / body weight / body weight gain + systemic / in life observation / clinical signs / nasal discharge + …
[6] = test system: rat; conditions: Subchronic oral toxicity in rodents, fischer, Feed, dose end: 14 week, group: systemic
[7] = test system: mouse; conditions: Subchronic oral toxicity in rodents, b6c3f1, Feed, dose end: 14 week, group: systemic
[8] = test system: dog; conditions: Chronic toxicity, beagle, Oral, Capsule, dose end: 52 week, group: systemic
[9] = test system: rabbit; conditions: Prenatal developmental toxicity study, new zealand white, Oral, Gavage/Intubation, dose end: 18 GD
[10] = test system: rat; conditions: Prenatal developmental toxicity study, other, Oral, Gavage/Intubation, dose end: 15 GD
[11] = test system: rat; conditions: Multigenerational reproductive toxicity study, other, Oral, Feed, dose end: 2 generation
[12] = test system: mouse; conditions: Carcinogenicity, cd1, Oral, Diet, dose end: 85 week, group: systemic
[13] = test system: rat; conditions: Multigenerational reproductive toxicity study, sprague dawley, Oral, Feed, dose end: 3 generation
[14] = test system: rat; conditions: Combined chronic toxicity/carcinogenicity, wistar, Oral, Feed, dose end: 103 week, group: systemic
[15] = test system: mouse; conditions: Combined chronic toxicity/carcinogenicity, cd1, Oral, Diet, dose end: 104 week, group: systemic
[16] = test system: rat; conditions: Developmental neurotoxicity study; wistar; Inhalation; Whole-Body; dose end: 119 PND; group: cannot be grouped; systemic / in life observation / body weight / offspring (pup) weight
[17] = test system: mouse; conditions: Developmental neurotoxicity study; cd1; Inhalation; Whole-Body; dose end: 20 PND; group: cannot be grouped; systemic / in life observation / body weight / offspring (pup) weight gain + systemic / in life observation / clinical signs / grip strength
[18] = test system: rat; conditions: Developmental neurotoxicity study, wistar, Inhalation, Whole-Body, dose end: 81 PND, group: cannot be grouped
[19] = test system: rat; conditions: Developmental neurotoxicity study, sprague dawley, Inhalation, Whole-Body, dose end: 63 PND, group: cannot be grouped
[20] = test system: rat; conditions: Developmental neurotoxicity study; sprague dawley; Inhalation; Whole-Body; dose end: 21 PND; group: cannot be grouped; developmental / developmental malformation / general / [other] + systemic / in life observation / body weight / offspring (pup) weight + …
[21] = test system: rat; conditions: Developmental neurotoxicity study; wistar; Inhalation; Whole-Body; dose end: 98 PND; group: cannot be grouped; systemic / in life observation / body weight / offspring (pup) weight
[22] = test system: rat; conditions: Chronic toxicity; other; Oral; Feed; dose end: 26 week; group: systemic; systemic / in life observation / body weight / body weight gain + systemic / in life observation / food consumption / food consumption + …
[23] = test system: dog; conditions: Sub-acute repeat dose toxicity; beagle; Injection; Intravenous; dose end: 1 month; group: systemic; systemic / hematology / erythrocyte (rbc) count differential / erythrocyte (rbc) + systemic / hematology / hematocrit (hct) / hematocrit (…
[24] = test system: dog; conditions: Chronic toxicity; beagle; Oral; Capsule; dose end: 33 week; group: systemic; systemic / hematology / hematocrit (hct) / hematocrit (hct) + systemic / hematology / hemoglobin (hgb) / hemoglobin (hgb) + systemic / organ…
[25] = group: developmental, developmental / offspring survival late / [other] / [other]
[26] = group: maternal, reproductive / offspring survival early / dead fetuses / dead fetuses
[27] = group: offspring, systemic / pathology microscopic / liver / [other] + systemic / pathology gross / full gross necropsy / hemangiosarcoma
[28] = group: offspring, systemic / pathology microscopic / liver / [other] + systemic / pathology microscopic / liver / hemangioma + systemic / pathology …
[29] = systemic / pathology microscopic / liver / vacuolization cytoplasmic + systemic / organ weight / liver / nos + systemic / pathology gross…
[30] = systemic / organ weight / liver / absolute + systemic / organ weight / liver / relative to body weight + systemic / pathology gross / liver…
[31] = systemic / organ weight / liver / absolute + systemic / organ weight / liver / relative to body weight + systemic / pathology microscopic / …
[32] = systemic / in life observation / body weight / body weight gain + systemic / in life observation / food consumption / food consumption + …
[33] = group: developmental, developmental / developmental malformation / bone / fused + developmental / developmental malformation / bone / supernumerary
[34] = group: maternal, reproductive / reproductive performance / resorptions / resorptions
[35] = group: developmental, developmental / developmental malformation / bone / [other] + developmental / developmental malformation / bone / delayed ossification + …
[36] = group: maternal, systemic / in life observation / body weight / body weight + systemic / in life observation / body weight / body weight gain + systemic / in…
[37] = group: offspring, developmental / offspring survival late / viability index / viability index + systemic / in life observation / body weight / offspring (pup…
[38] = group: offspring, systemic / in life observation / body weight / offspring (pup) weight + systemic / in life observation / body weight / offspring (pup) …
[39] = group: parental, systemic / in life observation / body weight / body weight gain
[40] = group: parental, systemic / in life observation / body weight / body weight gain + systemic / in life observation / body weight / body weight + systemic / in…
[41] = group: reproductive, reproductive / reproductive performance / mating / mating
[42] = systemic / in life observation / mortality / mortality + systemic / pathology microscopic / adrenal gland / amyloid deposition + systemic / …
[43] = group: offspring, systemic / in life observation / body weight / offspring (pup) weight
[44] = group: parental, systemic / in life observation / body weight / body weight
[45] = group: reproductive, reproductive / offspring survival early / birth index / live birth index
[46] = systemic / organ weight / spleen / nos + systemic / organ weight / spleen / relative to body weight
[47] = systemic / in life observation / body weight / body weight + systemic / in life observation / body weight / body weight gain + developmental…
[48] = systemic / in life observation / body weight / body weight gain + systemic / in life observation / clinical signs / motor activity
[49] = systemic / in life observation / body weight / body weight gain + systemic / in life observation / clinical signs / motor activity + …

SMILES: CN(C)N=O [N-Nitrosodimethylamine]
- LEL [1, 25]: 1 mg/kg/day
- LOAEL [1, 25]: > 50 mg/kg/day
- NEL [1, 25]: < 1 mg/kg/day
- NOAEL [1, 25]: ≥ 50 mg/kg/day
- LEL [1, 26]: 20 mg/kg/day
- LOAEL [1, 26]: > 50 mg/kg/day
- NEL [1, 26]: 10 mg/kg/day
- NOAEL [1, 26]: ≥ 50 mg/kg/day
- LEL [1, 27]: 1 mg/kg/day
- NEL [1, 27]: < 1 mg/kg/day
- LOAEL [1, 28]: > 50 mg/kg/day
- NOAEL [1, 28]: ≥ 50 mg/kg/day
- LEL [2]: 0.0667 mg/kg/day
- LOAEL [2]: > 0.0667 mg/kg/day
- NEL [2]: < 0.0667 mg/kg/day
- NOAEL [2]: ≥ 0.0667 mg/kg/day
- LEL [3]: 1.33 mg/kg/day
- LOAEL [3]: > 1.33 mg/kg/day
- NEL [3]: < 1.33 mg/kg/day
- NOAEL [3]: ≥ 1.33 mg/kg/day

SMILES: ClC(Cl)C(Cl)Cl [1,1,2,2-Tetrachloroethane]
- LEL [4]: 142 mg/kg/day
- LOAEL [4]: > 284 mg/kg/day
- NEL [4]: < 142 mg/kg/day
- NOAEL [4]: ≥ 284 mg/kg/day
- LEL [5]: 43 mg/kg/day
- LOAEL [5]: > 76 mg/kg/day
- NEL [5]: < 43 mg/kg/day
- NOAEL [5]: ≥ 76 mg/kg/day
- LOAEL ([6]; systemic / in life observation / body weight / body weight gain + systemic / pathology microscopic / liver / vacuolization cytoplasmic): 40 mg/kg/day
- NOAEL ([6]; systemic / in life observation / body weight / body weight gain + systemic / pathology microscopic / liver / vacuolization cytoplasmic + …): 20 mg/kg/day
- LEL [6, 29]: 20 mg/kg/day
- NEL [6, 29]: < 20 mg/kg/day
- LEL [7, 30]: 80 mg/kg/day
- NEL [7, 30]: < 80 mg/kg/day
- LOAEL [7, 31]: 160 mg/kg/day
- NOAEL [7, 31]: 80 mg/kg/day

SMILES: CC(C)=CC1C(C(=O)OCc2coc(Cc3ccccc3)c2)C1(C)C (stereo not drawn) [Resmethrin]
- NEL [8, 32]: 108 mg/kg/day
- NOAEL [8, 32]: 108 mg/kg/day
- LOAEL ([8]; systemic / in life observation / body weight / body weight gain + systemic / pathology microscopic / eye / cataract, subcapsular): 430 mg/kg/day
- LEL ([8]; systemic / in life observation / body weight / body weight gain + systemic / pathology microscopic / eye / cataract, subcapsular + systemic…): 430 mg/kg/day
- LEL [9, 33]: 100 mg/kg/day
- LOAEL [9, 33]: 100 mg/kg/day
- NEL [9, 33]: 30 mg/kg/day
- NOAEL [9, 33]: 30 mg/kg/day
- LEL [9, 34]: 100 mg/kg/day
- LOAEL [9, 34]: 100 mg/kg/day
- NEL [9, 34]: 30 mg/kg/day
- NOAEL [9, 34]: 30 mg/kg/day
- LEL [10, 35]: 80 mg/kg/day
- LOAEL [10, 35]: 80 mg/kg/day
- NEL [10, 35]: 40 mg/kg/day
- NOAEL [10, 35]: 40 mg/kg/day
- LEL [10, 36]: 80 mg/kg/day
- LOAEL [10, 36]: 80 mg/kg/day
- NEL [10, 36]: 40 mg/kg/day
- NOAEL [10, 36]: 40 mg/kg/day
- LOAEL [11, 37]: 70.8 mg/kg/day
- NOAEL [11, 37]: 34.8 mg/kg/day
- LEL [11, 38]: 34.8 mg/kg/day
- NEL [11, 38]: 17.4 mg/kg/day
- NEL [11, 39]: 34.8 mg/kg/day
- NOAEL [11, 39]: 34.8 mg/kg/day
- LEL [11, 40]: 70.8 mg/kg/day
- LOAEL [11, 40]: 70.8 mg/kg/day
- LEL [11, 41]: 70.8 mg/kg/day
- LOAEL [11, 41]: 70.8 mg/kg/day
- NEL [11, 41]: 34.8 mg/kg/day
- NOAEL [11, 41]: 34.8 mg/kg/day
- LOAEL [12, 42]: 138 mg/kg/day
- NEL [12, 42]: 36.3 mg/kg/day
- NOAEL [12, 42]: 71.3 mg/kg/day
- LEL ([12]; systemic / organ weight / adrenal gland / absolute + systemic / organ weight / adrenal gland / relative to body weight + systemic / organ …): 71.3 mg/kg/day
- LEL [13, 43]: 25 mg/kg/day
- LOAEL [13, 43]: 25 mg/kg/day
- NEL [13, 43]: < 25 mg/kg/day
- NOAEL [13, 43]: < 25 mg/kg/day
- LEL [13, 44]: 40 mg/kg/day
- LOAEL [13, 44]: 40 mg/kg/day
- NEL [13, 44]: 25 mg/kg/day
- NOAEL [13, 44]: 25 mg/kg/day
- LEL [13, 45]: 40 mg/kg/day
- LOAEL [13, 45]: > 62.5 mg/kg/day
- NEL [13, 45]: 25 mg/kg/day
- NOAEL [13, 45]: ≥ 62.5 mg/kg/day
- LOAEL ([14]; systemic / organ weight / liver / absolute + systemic / in life observation / body weight / body weight + systemic / in life observation / …): 233 mg/kg/day
- NOAEL ([14]; systemic / organ weight / liver / absolute + systemic / organ weight / liver / relative to body weight + systemic / organ weight / spleen / …): 47 mg/kg/day
- LEL [14, 46]: 47 mg/kg/day
- NEL [14, 46]: < 47 mg/kg/day
- LOAEL ([15]; systemic / in life observation / mortality / mortality): 84.3 mg/kg/day
- NOAEL ([15]; systemic / in life observation / mortality / mortality + systemic / pathology microscopic / liver / adenoma/carcinoma combined + systemic / …): 43.4 mg/kg/day
- LEL [15, 31]: 43.4 mg/kg/day
- NEL [15, 31]: < 43.4 mg/kg/day

SMILES: Cc1ccccc1 [Toluene]
- LEL [16]: 1200 ppm
- LOAEL [16]: > 1200 ppm
- NEL [16]: < 1200 ppm
- NOAEL [16]: ≥ 1200 ppm
- LEL [17]: 2000 ppm
- LOAEL [17]: > 2000 ppm
- NEL [17]: 400 ppm
- NOAEL [17]: ≥ 2000 ppm
- NEL ([18]; systemic / in life observation / body weight / body weight + systemic / in life observation / body weight / body weight gain): 600 ppm
- LEL [18, 47]: 1000 ppm
- LOAEL [18, 47]: > 1200 ppm
- NOAEL [18, 47]: ≥ 1200 ppm
- LEL [19, 48]: 8000 ppm
- NEL [19, 48]: < 8000 ppm
- LOAEL [19, 49]: > 12000 ppm
- NOAEL [19, 49]: ≥ 12000 ppm
- LEL [20]: 12000 ppm
- LOAEL [20]: > 12000 ppm
- NEL [20]: 8000 ppm
- NOAEL [20]: ≥ 12000 ppm
- LEL [21]: 1800 ppm
- LOAEL [21]: > 1800 ppm
- NEL [21]: < 1800 ppm
- NOAEL [21]: ≥ 1800 ppm

SMILES: CN(C)[C@@H]1C(=O)C(C(N)=O)=C(O)[C@@]2(O)C(=O)C3=C(O)c4c(O)cccc4[C@@](C)(O)[C@H]3C[C@@H]12 [Tetracycline]
- LEL [22]: 125 mg/kg/day
- LOAEL [22]: > 500 mg/kg/day
- NEL [22]: < 125 mg/kg/day
- NOAEL [22]: ≥ 500 mg/kg/day
- LEL [23]: 40 mg/kg/day
- LOAEL [23]: > 40 mg/kg/day
- NEL [23]: < 40 mg/kg/day
- NOAEL [23]: ≥ 40 mg/kg/day
- LEL [24]: 500 mg/kg/day
- LOAEL [24]: > 500 mg/kg/day
- NEL [24]: 250 mg/kg/day
- NOAEL [24]: ≥ 500 mg/kg/day
